target: T1, BTK (Homo sapiens, UniProt Q06187); assay: Cellular BTK HTRF assay (BTK degradation) in TMD8 cells; type: cell-based; settings: four hours incubation, Total-BTK HTRF relative to DMSO-treated cells
T1 construct: endogenous in cells; host or cells: TMD8 cells
Procedure: Example 66: BTK Degradation Assay
TMD8 cells were obtained from Tokyo Medical and Dental University and were grown in alpha-MEM (Fisher 12571063) supplemented with 10% heat-inactivated FBS (Corning Premium Fetal Bovine Serum from Fisher, MT35015CV).
Compounds of the present invention were added to 50,000 TMD8 cells in round-bottom 96 well plates with a final DMSO concentration of […] and were incubated at 37° C. 5% CO2 for four hours. BTK levels were determined using Cisbio Total-BTK HTRF ([…] Time-Resolved Fluorescence) kit (63ADK064PEG) according to manufacturer's protocol. Briefly, cells were incubated in 1× supplied lysis buffer for 30 minutes. In an opaque white low volume 96 well plate (Cisbio, 66PL96005), cell lysate was combined with two different specific BTK antibodies, one conjugated with Eu^3+-Cryptate FRET donor and one conjugated with d2 FRET acceptor. Assay controls include wells containing cell lysate with only the Eu^3+-Cryptate FRET donor antibody and wells containing both HTRF antibodies and lysis buffer without cells or control lysate provided by Cisbio. HTRF ratio was calculated as (acceptor signal at 665 nm/donor signal at 620 nm)×10^4. Background HTRF levels were determined from the control well containing the donor, but no acceptor, antibody. Background HTRF levels were subtracted from all samples. Readouts were reported as HTRF levels relative to HTRF levels of DMSO-treated cells. Four-parameter non-linear regressions were performed in GraphPad Prism 7.02 to obtain DC50 values. DC50 values are provided in Table 3, wherein A<5.0 nM, 5.0 nM≤B≤15 nM, and 15 nM<C.

T1 sequence (Q06187 whole entry): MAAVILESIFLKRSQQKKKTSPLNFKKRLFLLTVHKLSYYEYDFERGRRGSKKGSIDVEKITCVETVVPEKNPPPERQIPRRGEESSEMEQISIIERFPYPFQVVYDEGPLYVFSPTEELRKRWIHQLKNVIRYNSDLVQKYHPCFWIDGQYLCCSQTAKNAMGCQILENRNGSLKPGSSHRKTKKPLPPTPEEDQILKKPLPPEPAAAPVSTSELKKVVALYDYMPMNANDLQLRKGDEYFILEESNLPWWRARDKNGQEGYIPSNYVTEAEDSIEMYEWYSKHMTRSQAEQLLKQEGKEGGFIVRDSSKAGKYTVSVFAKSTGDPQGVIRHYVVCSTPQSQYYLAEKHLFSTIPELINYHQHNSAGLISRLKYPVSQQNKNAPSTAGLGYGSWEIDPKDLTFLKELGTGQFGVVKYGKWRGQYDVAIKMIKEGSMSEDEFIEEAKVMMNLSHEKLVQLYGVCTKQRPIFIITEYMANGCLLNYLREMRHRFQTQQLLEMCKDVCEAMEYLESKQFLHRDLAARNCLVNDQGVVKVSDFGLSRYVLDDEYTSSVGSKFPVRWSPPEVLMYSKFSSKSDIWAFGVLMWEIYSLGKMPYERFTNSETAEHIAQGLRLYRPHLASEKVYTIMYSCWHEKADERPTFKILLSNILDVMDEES

Row | DC50 [nM] | SMILES
1 | < 5 | CN1CCN([C@@H]2CCCN(c3cnc(C(N)=O)c(Nc4ccc(C5CCN(C[C@@H]6CCN(c7ccc8c(c7)C(=O)N(C7CCC(=O)NC7=O)C8=O)C6)CC5)cc4)n3)C2)C1=O (some centres unmarked) [Compound 52]
2 | > 15 | CN1CCN([C@H]2CCCN(c3cnc(C(N)=O)c(Nc4ccc(N5CCN(CCCCc6cccc7c6CN(C6CCC(=O)NC6=O)C7=O)CC5)cn4)n3)C2)C1=O (some centres unmarked) [Compound 88]
3 | < 5 | CN1CCN([C@@H]2CCCN(c3cnc(C(N)=O)c(Nc4ccc(C5CCN(C[C@H]6CCN(c7ccc8c(c7)CN(C7CCC(=O)NC7=O)C8=O)C6)CC5)cc4)n3)C2)C1=O (some centres unmarked) [Compound 117]
4 | < 5 | CN1CCN([C@@H]2CCCN(c3cnc(C(N)=O)c(Nc4ccc(N5CCN(C[C@H]6CCN(c7ccc8c(c7)C(=O)N(C7CCC(=O)NC7=O)C8=O)C6)CC5)cc4)n3)C2)C1=O (some centres unmarked) [Compound 42]
5 | < 5 | Cn1cc(Nc2nc(N3CCC[C@H](N4CC5(CN(CC6CCN(c7ccc(NC8CCC(=O)NC8=O)nc7)CC6)C5)OC4=O)C3)cnc2C(N)=O)cn1 (some centres unmarked) [Compound 132]
6 | > 15 | CN1CCN([C@@H]2CCCN(c3cnc(C(N)=O)c(Nc4ccc(C(=O)NCCOCCc5cccc6c5CN(C5CCC(=O)NC5=O)C6=O)cc4)n3)C2)C1=O (some centres unmarked) [Compound 9]
7 | 5 to 15 | CN1CCN([C@@H]2CCCN(c3cnc(C(N)=O)c(Nc4ccc(N5CC6CN(Cc7ccc8c(c7)C(=O)N(C7CCC(=O)NC7=O)C8=O)CC6C5)cc4)n3)C2)C1=O (some centres unmarked) [Compound 76]
8 | < 5 | CN1CCN([C@@H]2CCCN(c3cnc(C(N)=O)c(Nc4ccc(C5CCN(C[C@@H]6CCCN(c7ccc8c(c7)C(=O)N(C7CCC(=O)NC7=O)C8=O)C6)CC5)cc4)n3)C2)C1=O (stereo partly drawn) [Compound 32, 3-((4-(1-(((3S)-1-(2-(2,6-dioxopiperidin-3-yl)-1,3-dioxoisoindolin-5-yl)piperidin-3-yl)methyl)piperidin-4-yl)phenyl)amino)-5-((R)-3-(3-methyl-2-oxoimidazolidin-1-yl)piperidin-1-yl)pyrazine-2-carboxamide]
9 | < 5 | CC1CCN([C@H]2CCCN(c3cnc(C(N)=O)c(Nc4ccc(C5CCN(C[C@@H]6CCN(c7ccc(-c8nn(C9CCC(=O)NC9=O)c(=O)n8C)cc7)C6)CC5)cc4)n3)C2)C1=O (some centres unmarked) [Compound 142]
10 | 5 to 15 | CN1CCN([C@@H]2CCCN(c3cnc(C(N)=O)c(Nc4ccc(C5CCN(C(=O)COc6cccc7c6C(=O)N(C6CCC(=O)NC6=O)C7=O)CC5)cc4)n3)C2)C1=O (some centres unmarked) [Compound 158]
11 | < 5 | Cn1c(-c2ccc(N3CCC(CN4CCC(c5ccc(Nc6nc(N7CCC[C@H](N8CCCC8=O)C7)cnc6C(N)=O)cc5)CC4)CC3)cc2)nn(C2CCC(=O)NC2=O)c1=O (some centres unmarked) [Compound 143]
12 | < 5 | NC(=O)c1ncc(N2CCC[C@@H](N3CCOC3=O)C2)nc1Nc1ccc(C2CCN(CC3CCN(c4ccc5c(=O)n(C6CCC(=O)NC6=O)ccc5c4)CC3)CC2)cc1 (some centres unmarked) [Compound 153]
13 | > 15 | CN1CCN([C@@H]2CCCN(c3cnc(C(N)=O)c(Nc4ccc(C5CCN(CC6CCN(c7ccc(N(C)C8CCC(=O)NC8=O)cn7)CC6)CC5)cc4)n3)C2)C1=O (some centres unmarked) [Compound 180]
14 | < 5 | CN1CCN([C@@H]2CCCN(c3cnc(C(N)=O)c(Nc4ccc(C5CN(CC6CCN(c7ccc8c(=O)n(C9CCC(=O)NC9=O)ccc8c7)CC6)C5)cc4)n3)C2)C1=O (some centres unmarked) [Compound 69]
15 | < 5 | CN1CCN([C@H]2CCCN(c3cnc(C(N)=O)c(Nc4ccc(C5(C)CCN([C@H]6C[C@@H](Nc7cccc8c7C(=O)N(C7CCC(=O)NC7=O)C8=O)C6)CC5)cc4)n3)C2)C1=O (some centres unmarked) [Compound 102]
16 | < 5 | CN1CCN([C@@H]2CCCN(c3cnc(C(N)=O)c(Nc4ccc(N5CCC6(CC5)CCN(c5ccc7c(c5)C(=O)N(C5CCC(=O)NC5=O)C7=O)CC6)cc4)n3)C2)C1=O (some centres unmarked) [Compound 55]
17 | < 5 | CN1CCN([C@@H]2CCCN(c3cnc(C(N)=O)c(Nc4ccc(N5CCN(CCC6CN(c7ccc8c(c7)C(=O)N(C7CCC(=O)NC7=O)C8=O)C6)CC5)cc4)n3)C2)C1=O (some centres unmarked) [Compound 43]
18 | 5 to 15 | CN1CCN([C@@H]2CCCN(c3cnc(C(N)=O)c(Nc4ccc(N5CCN(C[C@H]6CCN(c7ccc8c(c7)C(=O)N(C7CCC(=O)NC7=O)C8=O)C6)CC5)cn4)n3)C2)C1=O (some centres unmarked) [Compound 89]
19 | < 5 | CN1CCN([C@H]2CCCN(c3cnc(C(N)=O)c(Nc4ccc(C5CCN(CC6CCN(c7ccc(NC8CCC(=O)NC8=O)cn7)CC6)CC5)cc4)n3)C2)C1=O (some centres unmarked) [Compound 129]
20 | < 5 | NC(=O)c1ncc(N2CCCC(N3CCCC3=O)C2)nc1Nc1ccc(C2CN(C[C@@H]3CCN(c4ccc5c(c4)C(=O)N(C4CCC(=O)NC4=O)C5=O)C3)C2)cc1 (some centres unmarked) [Compound 146]
21 | < 5 | CN1CCN([C@@H]2CCCN(c3cnc(C(N)=O)c(Nc4ccc(C5CN(C[C@H]6CCN(c7ccc8c(c7)C(=O)N(C7CCC(=O)NC7=O)C8=O)C6)C5)cc4)n3)C2)C1=O (some centres unmarked) [Compound 35]

Row | DC50 [nM] | SMILES
22 | > 15 | CN1CCN([C@H]2CCCN(c3cnc(C(N)=O)c(Nc4ccc(N5CCC6(CC5)CCN(c5ccc7c(c5)C(=O)N(C5CCC(=O)NC5=O)C7=O)CC6)cn4)n3)C2)C1=O (some centres unmarked) [Compound 81]
23 | > 15 | Cc1ncsc1-c1ccc(CNC(=O)[C@@H]2C[C@@H](O)CN2C(=O)[C@@H](NC(=O)C2(F)CC2)C(C)(C)C)c(OCCCCCC(=O)N2CCC(c3ccc(Nc4nc(N5CCC[C@@H](N6CCN(C)C6=O)C5)cnc4C(N)=O)cc3)CC2)c1 [Compound 187]
24 | < 5 | CN1CCN([C@@H]2CCCN(c3cnc(C(N)=O)c(Nc4ccc(C5CCN(c6ccc7c(c6)C(=O)N(C6CCC(=O)NC6=O)C7=O)CC5)cc4)n3)C2)C1=O (some centres unmarked) [Compound 47]
25 | < 5 | CN1CCN([C@H]2CCCN(c3cnc(C(N)=O)c(Nc4ccc(N5CCC6(CC5)CN(c5ccc7c(c5)C(=O)N(N5CCC(=O)NC5=O)C7=O)C6)cc4)n3)C2)C1=O [Compound 112]
26 | < 5 | CN1CCN([C@H]2CCCN(c3cnc(C(N)=O)c(Nc4cnn(C5CCN(C6CCN(c7ccc8c(c7)C(=O)N(C7CCC(=O)NC7=O)C8=O)CC6)CC5)c4)n3)C2)C1=O (some centres unmarked) [Compound 77]
27 | 5 to 15 | CN1CCN([C@@H]2CCCN(c3cnc(C(N)=O)c(Nc4ccc(C(=O)NCCCCNc5cccc6c5C(=O)N(C5CCC(=O)NC5=O)C6=O)cc4)n3)C2)C1=O (some centres unmarked) [Compound 8]
28 | < 5 | NC(=O)c1ncc(N2CCCCC2)nc1Nc1ccc(C2CCN(CC3CCN(c4ccc5c(=O)n(C6CCC(=O)NC6=O)ccc5c4)CC3)CC2)cc1 (centres unmarked) [Compound 133]
29 | < 5 | NC(=O)c1ncc(N2CCC[C@@H](N3CCCC3=O)C2)nc1Nc1ccc(N2CC(C3CCN(c4ccc5c(c4)C(=O)N(C4CCC(=O)NC4=O)C5=O)CC3)C2)nc1 (some centres unmarked) [Compound 168]
30 | 5 to 15 | NC(=O)c1ncc(N2CCCCC2)nc1Nc1ccc(C2CCN(CC3CCN(c4ncc(C(=O)NC5CCC(=O)NC5=O)o4)CC3)CC2)cc1 (centres unmarked) [Compound 191]
31 | > 15 | CN1CCN([C@@H]2CCCN(c3cnc(C(N)=O)c(Nc4ccc(N5CCN(Cc6ccc7c(c6)C(=O)N(C6CCC(=O)NC6=O)C7=O)CC5)cc4)n3)C2)C1=O (some centres unmarked) [Compound 100]
32 | < 5 | CN1CCN([C@@H]2CCCN(c3cnc(C(N)=O)c(Nc4ccc(N5CCC6(CCN(CCCCc7cccc8c7CN(C7CCC(=O)NC7=O)C8=O)CC6)CC5)cc4)n3)C2)C1=O (some centres unmarked) [Compound 56]
33 | 5 to 15 | CN1CCN([C@@H]2CCCN(c3cnc(C(N)=O)c(Nc4ccc(C5(C)CCN(C(=O)CN6CCN(CCc7cccc8c7CN(C7CCC(=O)NC7=O)C8=O)CC6)CC5)cc4)n3)C2)C1=O (some centres unmarked) [Compound 13]
34 | 5 to 15 | CN1CCN([C@@H]2CCCN(c3cnc(C(N)=O)c(Nc4ccc(C5(C)CCN(C(=O)CCCCc6cccc7c6CN(C6CCC(=O)NC6=O)C7=O)CC5)cc4)n3)C2)C1=O (some centres unmarked) [Compound 26]
35 | > 15 | Cc1ncsc1-c1ccc([C@H](C)NC(=O)[C@@H]2C[C@@H](O)CN2C(=O)[C@@H](NC(=O)CCCCCCCC(=O)N2CCC(c3ccc(Nc4nc(N5CCC[C@@H](N6CCN(C)C6=O)C5)cnc4C(N)=O)cc3)CC2)C(C)(C)C)cc1 [Compound 188]
36 | < 5 | CN1CCN([C@@H]2CCCN(c3cnc(C(N)=O)c(Nc4ccc(N5CC6(CN(CCCc7cccc8c7CN(C7CCC(=O)NC7=O)C8=O)C6)C5)cc4)n3)C2)C1=O (some centres unmarked) [Compound 33]
37 | > 15 | CN1CCN([C@@H]2CCCN(c3cnc(C(N)=O)c(Nc4cccc(NC(=O)CCCN5CCN(c6ccc7c(c6)C(=O)N(C6CCC(=O)NC6=O)C7=O)CC5)c4)n3)C2)C1=O (some centres unmarked) [Compound 62]
38 | < 5 | CN1CCN([C@@H]2CCCN(c3cnc(C(N)=O)c(Nc4ccc(N5CCN(CC6CN(c7ccc8c(c7)C(=O)N(C7CCC(=O)NC7=O)C8=O)C6)CC5)cc4)n3)C2)C1=O (some centres unmarked) [Compound 60]
39 | < 5 | NC(=O)c1ncc(N2CCCC3(COC3)C2)nc1Nc1ccc(C2CCN(C[C@H]3CCN(c4ccc5c(c4)C(=O)N(C4CCC(=O)NC4=O)C5=O)C3)CC2)cc1 (some centres unmarked) [Compound 126]
40 | 5 to 15 | CN1CCN([C@@H]2CCCN(c3cnc(C(N)=O)c(Nc4ccc(N5CCN(C(=O)CN6CCN(CCc7cccc8c7CN(C7CCC(=O)NC7=O)C8=O)CC6)CC5)cc4)n3)C2)C1=O (some centres unmarked) [Compound 12]
41 | < 5 | CN1CCN([C@@H]2CCCN(c3cnc(C(N)=O)c(Nc4ccc(C5CCN(CC6CCN(c7ccc(-c8nn(C9CCC(=O)NC9=O)c(=O)n8C)cc7)CC6)CC5)cc4)n3)C2)C1=O (some centres unmarked) [Compound 121]

— patent US11479556B1, “Bifunctional compounds for degrading BTK via ubiquitin proteosome pathway” (NURIX THERAPEUTICS, INC., priority 2018, dated 2022)
